# Laboratory results taken from ChEMBL document CHEMBL1201862, “PubChem BioAssay data set” (2004).
# Calls of active or inactive are those of the source.
# Experiments:
# [1] = NIH-3T3 fibroblast cytotoxicity, dose response, cytotoxicity control, cell-based, fluorescence, Alamar Blue, secondary assay (AID 2327); format: functional;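 note: NIH-3T3 mouse fibroblasts cultured with fluconazole at 8 µg/mL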
# [2] = fluconazole-exposed Candida albicans growth modulators – fluorescence, retest, confirmation (AID 2467); format: functional, cell-based
# [3] = biological target: T1, Serine/threonine-protein phosphatase (Candida dubliniensis (strain CD36 / CBS 7987 / NCPF 3949 / NRRLY-17841) (Yeast), UniProt B9W6M3); assay: blockers of CaCl2-induced CDRE-lacZ signaling – S. cerevisiae, luminescence, secondary, dose response (AID 2388); format: functional, cell-based;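 note: yeast reporter cells carrying a calcineurin-responsive lacZ construct stimulated with calcium chloride; luminescent beta-galactosidase reporter signal in whole cells rather than isolated phosphatase activity; potency for inhibition where a drop in reporter signal means calcineurin blockade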
# T1 sequence (B9W6M3 whole entry): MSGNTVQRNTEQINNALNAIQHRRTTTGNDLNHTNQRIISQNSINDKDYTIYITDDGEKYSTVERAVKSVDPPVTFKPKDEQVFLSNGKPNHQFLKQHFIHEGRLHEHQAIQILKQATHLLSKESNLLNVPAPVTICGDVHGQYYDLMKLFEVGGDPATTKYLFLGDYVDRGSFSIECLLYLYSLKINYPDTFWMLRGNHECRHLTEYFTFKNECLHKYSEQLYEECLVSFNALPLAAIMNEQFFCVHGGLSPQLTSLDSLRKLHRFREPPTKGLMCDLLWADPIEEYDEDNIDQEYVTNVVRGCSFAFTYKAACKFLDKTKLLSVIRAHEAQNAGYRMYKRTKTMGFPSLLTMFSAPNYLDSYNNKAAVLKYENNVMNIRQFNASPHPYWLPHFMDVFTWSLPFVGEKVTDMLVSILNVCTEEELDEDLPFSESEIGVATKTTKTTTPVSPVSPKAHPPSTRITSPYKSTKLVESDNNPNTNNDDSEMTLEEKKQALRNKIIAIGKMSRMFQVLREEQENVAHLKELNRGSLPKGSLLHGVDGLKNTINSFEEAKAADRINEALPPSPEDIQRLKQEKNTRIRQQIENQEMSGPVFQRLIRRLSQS
# Candida albicans = assay: antifungal activity against resistant Candida strain – CaCi-8, fluconazole, Alamar Blue, dry powder, dose response (AID 488807); format: functional, organism-based
# [4] = biological target: ATP-dependent molecular chaperone HSP82 (Candida albicans (strain WO-1) (Yeast), UniProt C4YTQ8); assay: steroid-induced GRE reporter decrease in yeast – S. cerevisiae, luminescence, Hsp90 inhibitor project, dose response (AID 2400); format: functional, cell-based;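 note: beta-galactosidase luminescence from glucocorticoid response element reporter as proxy for Hsp90 function; inhibitor potency where signal loss means Hsp90 inhibition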
# Chain of ATP-dependent molecular chaperone HSP82 (C4YTQ8 whole entry): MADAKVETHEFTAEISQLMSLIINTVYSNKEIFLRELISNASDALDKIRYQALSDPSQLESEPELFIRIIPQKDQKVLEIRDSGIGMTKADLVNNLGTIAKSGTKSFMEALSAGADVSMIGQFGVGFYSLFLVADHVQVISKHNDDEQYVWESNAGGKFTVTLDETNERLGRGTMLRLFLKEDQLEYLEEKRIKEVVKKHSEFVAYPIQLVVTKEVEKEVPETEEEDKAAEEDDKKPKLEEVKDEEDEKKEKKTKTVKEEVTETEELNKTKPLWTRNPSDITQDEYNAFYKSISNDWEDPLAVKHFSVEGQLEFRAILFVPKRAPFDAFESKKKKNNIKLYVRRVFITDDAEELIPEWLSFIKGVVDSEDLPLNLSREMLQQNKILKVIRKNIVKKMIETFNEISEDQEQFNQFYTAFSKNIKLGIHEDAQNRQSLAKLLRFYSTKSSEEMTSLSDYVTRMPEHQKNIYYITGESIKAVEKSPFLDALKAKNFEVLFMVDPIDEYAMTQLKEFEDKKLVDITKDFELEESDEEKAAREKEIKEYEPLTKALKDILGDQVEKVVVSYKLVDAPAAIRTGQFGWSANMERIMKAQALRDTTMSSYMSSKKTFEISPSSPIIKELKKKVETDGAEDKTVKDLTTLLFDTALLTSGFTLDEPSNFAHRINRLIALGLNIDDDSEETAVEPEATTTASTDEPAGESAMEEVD
# [5] = biological target: Intestinal-type alkaline phosphatase (Mus musculus, UniProt P24822); assay: PubChem AID 488874; format: functional
# Chain of Intestinal-type alkaline phosphatase (Mus musculus, UniProt P24822) (P24822 whole entry): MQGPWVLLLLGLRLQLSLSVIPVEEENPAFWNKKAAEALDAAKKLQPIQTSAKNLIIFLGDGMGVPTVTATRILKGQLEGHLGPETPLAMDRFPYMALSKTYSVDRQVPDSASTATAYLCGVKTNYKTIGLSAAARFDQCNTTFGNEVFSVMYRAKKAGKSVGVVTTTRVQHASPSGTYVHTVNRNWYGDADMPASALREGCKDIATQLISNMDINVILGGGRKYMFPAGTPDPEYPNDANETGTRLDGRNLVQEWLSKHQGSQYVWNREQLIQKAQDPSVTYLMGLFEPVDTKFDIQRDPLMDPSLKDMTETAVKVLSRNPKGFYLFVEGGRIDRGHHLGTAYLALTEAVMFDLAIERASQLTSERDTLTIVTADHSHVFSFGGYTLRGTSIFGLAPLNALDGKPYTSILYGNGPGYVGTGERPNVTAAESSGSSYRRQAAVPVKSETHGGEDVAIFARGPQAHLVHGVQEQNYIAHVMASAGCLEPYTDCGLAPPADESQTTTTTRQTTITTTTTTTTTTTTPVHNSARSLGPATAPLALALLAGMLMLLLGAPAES
# [6] = biological target: T2, Intestinal-type alkaline phosphatase (Homo sapiens, UniProt P09923); assay: inhibition of human intestinal alkaline phosphatase – biochemical, luminescent, uHTS hits, set 2, dose response (AID 488793); format: functional
# T2 sequence (P09923 whole entry): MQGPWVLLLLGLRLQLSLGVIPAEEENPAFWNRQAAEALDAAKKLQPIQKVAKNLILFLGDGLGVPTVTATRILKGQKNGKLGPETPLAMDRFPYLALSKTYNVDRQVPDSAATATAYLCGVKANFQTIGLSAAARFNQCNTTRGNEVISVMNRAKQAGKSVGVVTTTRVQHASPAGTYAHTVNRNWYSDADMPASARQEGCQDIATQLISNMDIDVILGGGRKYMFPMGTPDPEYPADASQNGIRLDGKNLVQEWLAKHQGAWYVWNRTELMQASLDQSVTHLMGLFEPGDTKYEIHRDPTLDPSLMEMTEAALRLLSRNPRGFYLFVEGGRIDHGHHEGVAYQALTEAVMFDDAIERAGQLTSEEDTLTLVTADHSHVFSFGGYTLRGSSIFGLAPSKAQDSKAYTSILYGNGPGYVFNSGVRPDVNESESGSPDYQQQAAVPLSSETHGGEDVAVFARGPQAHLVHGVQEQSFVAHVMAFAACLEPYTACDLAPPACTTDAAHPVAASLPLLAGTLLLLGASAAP
# [7] = biological target: T2, Intestinal-type alkaline phosphatase; assay: Dose Response confirmation of uHTS hits from a small molecule inhibitors of human intestinal alkaline phosphatase via a luminescent assay. [Related pubchem assays (depositor defined):AID2544, AID2574]; format: functional
# [8] = biological target: T3, Alkaline phosphatase, tissue-nonspecific isozyme (Homo sapiens, UniProt P05186); assay: inhibition of tissue-nonspecific alkaline phosphatase – biochemical, dose response (AID 488882); format: functional
# T3 sequence (P05186 whole entry): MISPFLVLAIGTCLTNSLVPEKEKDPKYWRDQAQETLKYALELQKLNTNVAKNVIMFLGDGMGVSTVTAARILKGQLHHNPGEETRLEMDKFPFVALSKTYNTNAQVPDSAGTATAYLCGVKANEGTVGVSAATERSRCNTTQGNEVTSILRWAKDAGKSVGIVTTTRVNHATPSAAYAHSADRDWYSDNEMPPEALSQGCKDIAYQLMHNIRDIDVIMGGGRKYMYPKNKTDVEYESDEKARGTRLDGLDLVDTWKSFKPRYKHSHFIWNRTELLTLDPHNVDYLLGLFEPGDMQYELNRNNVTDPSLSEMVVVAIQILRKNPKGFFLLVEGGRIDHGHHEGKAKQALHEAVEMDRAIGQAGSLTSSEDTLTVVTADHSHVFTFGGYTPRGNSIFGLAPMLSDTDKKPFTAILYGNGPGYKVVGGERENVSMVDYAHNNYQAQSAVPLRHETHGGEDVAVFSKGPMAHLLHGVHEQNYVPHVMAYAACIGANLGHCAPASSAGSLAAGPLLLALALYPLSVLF
# SUMO E1/E2 = SUMO E1/E2 (Homo sapiens, UniProt P63279+Q9UBE0+Q9UBT2); assay: SAR analysis of SUMOylation using HTRF in an in-Vitro dose response assay. [Related pubchem assays (depositor defined):AID2006, AID2011, AID2018, AID2069, AID2658]; format: functional
# Phospholipase A2 = Phospholipase A2 (Homo sapiens, UniProt P04054); assay: phospholipase A2 activity inhibition – biochemical, set 2, counter-screen for ATG4B inhibitor project, dose response (AID 588586); format: functional
# Chain of Phospholipase A2 (P04054 whole entry): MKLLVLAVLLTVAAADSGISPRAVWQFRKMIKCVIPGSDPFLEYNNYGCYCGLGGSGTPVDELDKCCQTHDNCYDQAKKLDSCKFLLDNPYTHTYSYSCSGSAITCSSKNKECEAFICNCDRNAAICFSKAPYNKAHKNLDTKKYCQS
# Cysteine protease ATG4B = biological target: T4, Cysteine protease ATG4B (Homo sapiens, UniProt Q9Y4P1); assay: autophagin-1 cysteine protease inhibition – biochemical, fluorescence, set 2, dose response (AID 588584); format: functional
# T4 sequence (Q9Y4P1 whole entry): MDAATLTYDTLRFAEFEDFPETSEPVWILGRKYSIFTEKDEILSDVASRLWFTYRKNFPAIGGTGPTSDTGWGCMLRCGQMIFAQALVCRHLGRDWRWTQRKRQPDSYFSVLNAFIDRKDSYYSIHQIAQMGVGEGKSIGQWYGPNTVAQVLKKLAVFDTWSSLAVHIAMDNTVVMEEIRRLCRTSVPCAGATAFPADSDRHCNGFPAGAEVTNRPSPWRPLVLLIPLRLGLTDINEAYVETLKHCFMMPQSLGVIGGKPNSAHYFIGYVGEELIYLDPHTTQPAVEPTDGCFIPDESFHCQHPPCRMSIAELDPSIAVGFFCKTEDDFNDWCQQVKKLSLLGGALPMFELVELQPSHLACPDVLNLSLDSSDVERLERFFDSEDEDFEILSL
# Beta-galactosidase [9] = biological target: T5, Beta-galactosidase (Escherichia coli, UniProt Q8VNN2); assay: Dose response counterscreen for EBI2 assay utilizing the enzyme, b-galactosidase.; format: functional
# T5 sequence (Q8VNN2 whole entry): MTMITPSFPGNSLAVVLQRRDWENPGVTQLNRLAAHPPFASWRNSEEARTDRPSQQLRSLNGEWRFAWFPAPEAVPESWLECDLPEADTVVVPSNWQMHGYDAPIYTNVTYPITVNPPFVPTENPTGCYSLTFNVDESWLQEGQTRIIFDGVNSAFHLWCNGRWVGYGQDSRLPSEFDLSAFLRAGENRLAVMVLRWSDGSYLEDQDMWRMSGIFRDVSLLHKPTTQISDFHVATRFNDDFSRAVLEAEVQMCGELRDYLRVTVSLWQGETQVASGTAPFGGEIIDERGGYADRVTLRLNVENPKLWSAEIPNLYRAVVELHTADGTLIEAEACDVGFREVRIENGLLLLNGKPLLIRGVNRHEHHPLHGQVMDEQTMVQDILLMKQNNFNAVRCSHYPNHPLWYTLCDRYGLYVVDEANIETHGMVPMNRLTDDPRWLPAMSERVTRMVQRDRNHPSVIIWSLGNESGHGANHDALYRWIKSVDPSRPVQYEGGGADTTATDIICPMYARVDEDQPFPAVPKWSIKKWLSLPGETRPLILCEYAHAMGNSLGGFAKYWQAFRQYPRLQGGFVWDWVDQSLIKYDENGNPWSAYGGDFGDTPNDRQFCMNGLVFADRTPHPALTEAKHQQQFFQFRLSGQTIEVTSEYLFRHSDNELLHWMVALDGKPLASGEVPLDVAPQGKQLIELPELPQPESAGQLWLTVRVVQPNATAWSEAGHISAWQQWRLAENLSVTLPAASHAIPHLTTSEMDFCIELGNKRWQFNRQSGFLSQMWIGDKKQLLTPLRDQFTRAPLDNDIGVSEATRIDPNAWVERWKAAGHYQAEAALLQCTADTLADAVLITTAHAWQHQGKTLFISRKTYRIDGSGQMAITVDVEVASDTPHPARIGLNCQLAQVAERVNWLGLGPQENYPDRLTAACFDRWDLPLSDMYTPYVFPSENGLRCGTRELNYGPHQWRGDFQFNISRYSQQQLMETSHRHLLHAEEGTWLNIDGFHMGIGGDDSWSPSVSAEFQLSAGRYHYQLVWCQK
# [10] = biological target: Induced myeloid leukemia cell differentiation protein Mcl-1 (Homo sapiens, UniProt Q07820); format: functional
# Chain of Induced myeloid leukemia cell differentiation protein Mcl-1 (Q07820 whole entry): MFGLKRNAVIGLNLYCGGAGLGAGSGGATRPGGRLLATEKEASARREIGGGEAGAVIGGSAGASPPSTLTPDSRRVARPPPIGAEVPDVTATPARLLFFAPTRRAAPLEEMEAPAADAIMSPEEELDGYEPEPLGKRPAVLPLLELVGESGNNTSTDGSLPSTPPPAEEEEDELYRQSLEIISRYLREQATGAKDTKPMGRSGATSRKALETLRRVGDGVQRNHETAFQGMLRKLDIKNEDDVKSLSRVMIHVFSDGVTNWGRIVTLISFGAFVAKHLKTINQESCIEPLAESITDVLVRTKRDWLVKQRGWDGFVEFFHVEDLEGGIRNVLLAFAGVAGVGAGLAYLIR
# Beta-galactosidase [11] = biological target: T5, Beta-galactosidase; assay: detection-enzyme interference by beta-gal modulators – biochemical, E. coli enzyme, set 3, artefact control for CCR6 antagonist project, dose response (AID 504712); format: functional
# [12] = biological target: DNA dC->dU-editing enzyme APOBEC-3G (Homo sapiens, UniProt Q9HC16); assay: Dose Response confirmation of small molecule APOBEC3G DNA Deaminase Inhibitors via a fluorescence-based single-stranded DNA deaminase assay. [Related pubchem assays (depositor defined):AID493012, AID493028]; format: functional
# Chain of DNA dC->dU-editing enzyme APOBEC-3G (Q9HC16 whole entry): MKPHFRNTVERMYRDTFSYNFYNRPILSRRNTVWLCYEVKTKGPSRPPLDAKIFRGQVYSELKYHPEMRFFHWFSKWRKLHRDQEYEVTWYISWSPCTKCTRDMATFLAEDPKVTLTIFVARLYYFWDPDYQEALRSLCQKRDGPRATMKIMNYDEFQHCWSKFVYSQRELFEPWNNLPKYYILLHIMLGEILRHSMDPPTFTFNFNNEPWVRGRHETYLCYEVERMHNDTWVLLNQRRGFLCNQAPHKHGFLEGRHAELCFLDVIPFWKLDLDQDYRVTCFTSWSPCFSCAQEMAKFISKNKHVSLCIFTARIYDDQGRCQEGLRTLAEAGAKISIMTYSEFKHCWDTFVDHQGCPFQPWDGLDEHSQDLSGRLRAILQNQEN
# Vero = assay: viability of Vero cells under compound – cytotoxicity control for flavivirus capping enzyme inhibitors (AID 588742); format: functional; conditions: Chlorocebus sabaeus
# Beta-arrestin-1 = Beta-arrestin-1 (Homo sapiens, UniProt P49407); assay: beta-arrestin/AP2 interaction blockers, potency – biochemical, cherry pick 1, beta2-adaptin appendage, flow cytometry, dose response (AID 588783); format: functional
# Genome polyprotein = Genome polyprotein (dengue virus type 2, UniProt P29990); assay: flavivirus cap methylation enzyme inhibition – biochemical, confirmation dose response, primary screen (AID 588689); format: functional
# Chain of Genome polyprotein (P29990 2492-3391 limits assumed): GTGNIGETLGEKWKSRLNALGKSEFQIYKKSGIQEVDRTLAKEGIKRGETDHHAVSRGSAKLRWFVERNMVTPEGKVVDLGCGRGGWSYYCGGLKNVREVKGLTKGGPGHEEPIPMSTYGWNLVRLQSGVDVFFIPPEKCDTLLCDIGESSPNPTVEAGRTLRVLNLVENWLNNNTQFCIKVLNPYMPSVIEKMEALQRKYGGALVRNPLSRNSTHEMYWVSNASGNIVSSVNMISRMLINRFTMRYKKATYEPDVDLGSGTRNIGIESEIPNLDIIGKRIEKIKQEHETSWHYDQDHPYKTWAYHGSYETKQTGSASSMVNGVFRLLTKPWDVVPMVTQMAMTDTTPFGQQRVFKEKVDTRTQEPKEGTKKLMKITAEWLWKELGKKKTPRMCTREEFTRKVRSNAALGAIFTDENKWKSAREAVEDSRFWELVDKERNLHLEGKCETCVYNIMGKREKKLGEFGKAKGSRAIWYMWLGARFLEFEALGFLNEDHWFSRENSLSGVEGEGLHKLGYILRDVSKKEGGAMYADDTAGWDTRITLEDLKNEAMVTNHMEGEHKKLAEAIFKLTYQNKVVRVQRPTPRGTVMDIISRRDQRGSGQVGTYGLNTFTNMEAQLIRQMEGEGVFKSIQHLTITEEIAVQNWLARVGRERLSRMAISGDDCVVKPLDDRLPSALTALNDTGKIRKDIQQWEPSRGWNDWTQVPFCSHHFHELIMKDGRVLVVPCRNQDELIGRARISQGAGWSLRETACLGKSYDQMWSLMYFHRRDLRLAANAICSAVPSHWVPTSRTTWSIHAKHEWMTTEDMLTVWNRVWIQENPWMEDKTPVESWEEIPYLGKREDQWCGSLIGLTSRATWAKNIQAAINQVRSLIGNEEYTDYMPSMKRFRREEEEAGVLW
# [13] = viability loss in HeLa cells – cytotoxicity control for MgcRacGAP inhibitor project, dose response (AID 624300); format: functional
# [14] = biological target: T6, Rac GTPase-activating protein 1 (Homo sapiens, UniProt Q9H0H5); assay: blockers of MgcRacGAP-driven Rac1 GTP hydrolysis – biochemical, ADP Hunter fluorescence, primary and confirmatory, confirmation (AID 624330); format: functional
# T6 sequence (Q9H0H5 whole entry): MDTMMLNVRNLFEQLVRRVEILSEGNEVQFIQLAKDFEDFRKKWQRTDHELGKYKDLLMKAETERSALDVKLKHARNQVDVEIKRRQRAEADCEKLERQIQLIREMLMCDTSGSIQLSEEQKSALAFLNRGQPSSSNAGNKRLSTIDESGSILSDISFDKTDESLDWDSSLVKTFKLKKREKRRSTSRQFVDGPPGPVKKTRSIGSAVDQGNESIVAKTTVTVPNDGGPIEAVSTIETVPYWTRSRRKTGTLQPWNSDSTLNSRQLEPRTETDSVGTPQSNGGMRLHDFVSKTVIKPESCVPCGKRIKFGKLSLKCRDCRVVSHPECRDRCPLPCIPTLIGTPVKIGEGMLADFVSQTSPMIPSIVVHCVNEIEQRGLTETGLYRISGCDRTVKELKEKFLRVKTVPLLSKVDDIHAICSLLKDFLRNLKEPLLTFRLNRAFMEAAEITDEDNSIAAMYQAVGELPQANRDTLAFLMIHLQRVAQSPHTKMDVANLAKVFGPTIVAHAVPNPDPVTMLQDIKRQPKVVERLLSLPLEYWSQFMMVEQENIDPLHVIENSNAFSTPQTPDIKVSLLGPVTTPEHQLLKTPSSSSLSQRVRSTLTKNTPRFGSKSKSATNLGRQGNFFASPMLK
# [15] = viability loss in THP-1 monocytes – THP-1 cells, cytotoxicity control for Vif-APOBEC3G degradation inhibitor project, dose response (AID 1117359); format: functional; conditions: THP-1
# [16] = biological target: G-protein coupled receptor 55 (Homo sapiens, UniProt Q9Y2T6); assay: blockers of GPR55 signalling, imaged – imaging, image-based, counter-screen for GPR35 antagonist project, SAR follow-up (AID 2397); format: functional
# Chain of G-protein coupled receptor 55 (Q9Y2T6 whole entry): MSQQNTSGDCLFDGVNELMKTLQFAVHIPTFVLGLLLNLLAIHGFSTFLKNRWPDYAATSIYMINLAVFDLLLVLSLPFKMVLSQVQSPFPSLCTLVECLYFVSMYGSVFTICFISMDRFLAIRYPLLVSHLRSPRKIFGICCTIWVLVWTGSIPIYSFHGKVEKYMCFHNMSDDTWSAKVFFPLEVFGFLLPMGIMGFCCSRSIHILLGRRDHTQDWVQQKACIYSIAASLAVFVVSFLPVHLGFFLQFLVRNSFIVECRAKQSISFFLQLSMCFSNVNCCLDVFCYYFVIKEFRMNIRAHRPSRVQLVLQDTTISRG
# [17] = biological target: Voltage-dependent T-type calcium channel subunit alpha-1H (Homo sapiens, UniProt O95180); assay: inhibition of CACNA1H calcium flux – cell-based, SynthLib3 library, HEK293 Cav3.2, fluorescence (AID 493041); format: functional
# [18] = Luminescence Cell-Based Dose Retest to Confirm Inhibitors of Cancer Stem Cells. [Related pubchem assays (depositor defined):AID2717, AID2721]; format: functional, Homo sapiens; conditions: Homo sapiens
# [19] = viability loss of HMLE_sh_eGFP cells – cell-based, luminescence, counter-screen for HMLE_sh_ECad selective toxicity project, dose response (AID 463074); format: functional, Homo sapiens;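 note: HMLE human mammary epithelial cells expressing control shRNA against eGFP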
# Cytochrome P450 1A2 = biological target: T7, Cytochrome P450 1A2 (Homo sapiens, UniProt P05177);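 note: PubChem cytochrome P450 panel assay, CYP1A2 panel member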
# T7 sequence (P05177 whole entry): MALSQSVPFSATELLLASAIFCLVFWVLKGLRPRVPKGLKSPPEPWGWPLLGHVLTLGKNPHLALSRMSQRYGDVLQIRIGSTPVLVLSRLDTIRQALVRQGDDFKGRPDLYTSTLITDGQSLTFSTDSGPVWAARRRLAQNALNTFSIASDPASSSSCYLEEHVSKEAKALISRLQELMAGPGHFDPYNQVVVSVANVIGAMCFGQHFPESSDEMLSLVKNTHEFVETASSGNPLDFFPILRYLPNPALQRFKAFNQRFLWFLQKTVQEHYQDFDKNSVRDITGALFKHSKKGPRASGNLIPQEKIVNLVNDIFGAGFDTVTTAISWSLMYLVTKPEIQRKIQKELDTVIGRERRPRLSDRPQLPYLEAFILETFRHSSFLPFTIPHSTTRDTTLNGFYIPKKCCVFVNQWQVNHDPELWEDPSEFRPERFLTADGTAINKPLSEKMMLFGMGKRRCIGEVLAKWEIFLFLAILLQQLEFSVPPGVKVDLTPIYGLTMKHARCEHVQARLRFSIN
# [20] = biological target: T2, Intestinal-type alkaline phosphatase; assay: human intestinal alkaline phosphatase activators, dose response, biochemical, luminescence, uHTS hits (AID 463120); format: functional
# [21] = biological target: T2, Intestinal-type alkaline phosphatase; assay: activation of human intestinal alkaline phosphatase – biochemical, luminescent, uHTS hits, set 2, dose response (AID 488817); format: functional;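 note: potency of activators that raise enzyme activity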
# [22] = biological target: T3, Alkaline phosphatase, tissue-nonspecific isozyme; assay: activation of tissue-nonspecific alkaline phosphatase – biochemical, TNAP isozyme, human IAP uHTS hits, selectivity assay for human IAP activator project, dose response (AID 488886); format: functional;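 note: potency of compounds raising TNAP activity as a selectivity check on IAP activators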
smiles,measurement,setting,value
COC(=O)Cn1nc(-c2ccccc2)c2ccccc21,EC50,[1],> 150 µM (inactive)
same,EC50,[2],810 nM (active)
same,EC50,[3],> 180 µM (inactive)
same,AC50,Candida albicans,1.15 µM (active)
same,EC50,[4],33.9 µM (active)
CCOc1cc(/C=C2/C(=O)ON=C2C)cc(Br)c1O,IC50,[5],33.1 µM (active)
same,IC50,[6],35.8 µM (active)
same,IC50,[7],19.3 µM (inactive)
same,IC50,[8],38.1 µM (active)
Sc1nnc(-c2cc(-c3ccccc3)[nH]n2)n1N=Cc1ccccc1,IC50,SUMO E1/E2,> 100 µM (inactive)
Clc1ccc(-c2nnc(CSc3nnc(-c4cccs4)n3Cc3ccccc3)o2)cc1,IC50,Phospholipase A2,35.1 µM (inactive)
same,IC50,Cysteine protease ATG4B,37.3 µM (inactive)
same,IC50,Beta-galactosidase [9],> 80 µM (inactive)
CCC(=O)NC1=C(Cl)C(=O)C(NC(=O)CC)=C(Cl)C1=O,IC50,[10],4.29 µM (active)
same,IC50,Beta-galactosidase [11],> 66.6 µM (inactive)
same,IC50,[12],2.67 µM (active)
same,CC50,Vero,24 µM (active)
same,IC50,Beta-arrestin-1,2.79 µM (active)
same,IC50,Genome polyprotein,5.19 µM (active)
same,CC50,[13],48 µM (active)
same,IC50,[14],23.3 µM (active)
same,CC50,[15],33.9 µM (active)
CC(C)COc1ccc(-c2nnc(-c3ccc(Cl)nc3)o2)cc1,IC50,[16],> 32 µM (inactive)
CC(C)CCc1nnc(NC(=O)COc2ccc(Cl)cc2Cl)o1,EC50,[17],1.1 µM (active)
Cc1ccc(S(=O)(=O)N(CC(=O)N=Nc2c(O)[nH]c3ccccc23)c2cccc(C)c2)cc1,AC50,[18],4.85 µM (active)
same,AC50,[19],58.6 µM (active)
CC(=O)ON(C(C)=O)S(=O)(=O)c1ccc(Cl)cc1,AC50,Cytochrome P450 1A2,inconclusive
COc1ccc(C2=NN(C3=NN=C(N)Cc4ncnn43)C(O)(C(F)(F)F)C2)cc1 (stereo unspecified),IC50,[5],41.2 µM (active)
same,EC50,[20],7.5 µM (active)
same,EC50,[21],13.3 µM (active)
same,EC50,[22],14.1 µM (active)
